From patent publication US20250230171A1 (MOMA Therapeutics, Inc., priority 2023, published 2025) come the findings set out here.

In general, IC50 refers to the concentration that inhibits the measured activity by half.

For test [1], the target named is biotinylated Avi-POLθ[2-894] (Homo sapiens (Human), UniProt O75417). Description: POLθ ATPase assay (ADP-Glo). The note with it: n=2; read-out: Biochemical ATPase ADPGlo IC50. Background: In ADP-Glo the light output rises with the ADP produced.
Test [2] concerns DLD1 WT cells. Description: 7-day cell viability assay (CellTiter-Glo), DLD1 parental (WT). It counts as cell-based, human. The note with it: Homo sapiens, DLD-1, 168 h, 7-day viability, n=2.
Test [3] deals with DLD1 BRCA2 (−/−) cells. Put plainly: 7-day cell viability assay (CellTiter-Glo), DLD1 BRCA2 (−/−). It counts as cell-based, human. Conditions: Homo sapiens, DLD-1, 168 h, 7-day viability, n=2, read-out: Viability IC50 (uM) DLD1 BRCA2 null. In a few lines: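 7-day growth assay in DLD1 cells with or without BRCA2; seeding densities chosen to keep log-linear growth. Compound: 10 uM top, 3-fold, 9 points. Endpoint: CTG ATP luminescence at RT.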

biotinylated Avi-POLθ[2-894], sequence (O75417 2-894): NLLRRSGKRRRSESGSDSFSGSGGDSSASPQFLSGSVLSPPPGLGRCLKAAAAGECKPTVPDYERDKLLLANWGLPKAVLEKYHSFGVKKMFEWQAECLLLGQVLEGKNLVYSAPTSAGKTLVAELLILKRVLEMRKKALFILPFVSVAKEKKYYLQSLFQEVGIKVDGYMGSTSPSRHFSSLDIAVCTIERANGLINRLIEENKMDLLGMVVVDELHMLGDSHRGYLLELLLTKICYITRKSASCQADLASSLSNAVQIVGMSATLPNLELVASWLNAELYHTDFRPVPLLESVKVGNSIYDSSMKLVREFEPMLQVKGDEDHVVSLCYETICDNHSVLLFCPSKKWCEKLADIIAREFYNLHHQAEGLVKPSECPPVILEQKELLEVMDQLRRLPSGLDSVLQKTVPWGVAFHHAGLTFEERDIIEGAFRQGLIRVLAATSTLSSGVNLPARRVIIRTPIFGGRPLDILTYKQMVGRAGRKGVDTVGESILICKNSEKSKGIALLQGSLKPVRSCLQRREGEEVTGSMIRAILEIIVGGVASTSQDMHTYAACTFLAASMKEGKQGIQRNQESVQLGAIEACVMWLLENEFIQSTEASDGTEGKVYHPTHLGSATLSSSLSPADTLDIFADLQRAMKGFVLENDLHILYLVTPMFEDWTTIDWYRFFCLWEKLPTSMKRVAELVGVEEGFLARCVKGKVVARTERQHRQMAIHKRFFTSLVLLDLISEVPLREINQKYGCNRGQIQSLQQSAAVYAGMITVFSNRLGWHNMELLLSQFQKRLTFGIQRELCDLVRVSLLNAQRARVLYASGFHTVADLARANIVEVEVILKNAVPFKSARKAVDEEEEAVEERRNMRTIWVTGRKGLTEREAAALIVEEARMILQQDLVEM

For `COc1cnc(Cl)cc1-c1cc(C)ncc1C(=O)Nc1nc2c(s1)CN(C(=O)c1c(C)nn(C)c1C(F)F)C2` [Example 6, 2′-chloro-N-(5-(5-(difluoromethyl)-1,3-dimethyl-1H-pyrazole-4-carbonyl)-5,6-dihydro-4H-pyrrolo[3,4-d]thiazol-2-yl)-5′-methoxy-6-methyl-[4,4′-bipyridine]-3-carboxamide], the figures for the half-maximal inhibitory concentration (IC50) in test [1], in test [2] and in test [3] were 1 to 15 nM, at least 10 µM and 0.001 to 0.1 µM, respectively.

Turning to `COc1cnc(Cl)cc1-c1cc(C)ncc1C(=O)Nc1nc2c(s1)CN(C(=O)c1cccc(Cl)n1)C2` [Example 7, 2′-chloro-N-(5-(6-chloropicolinoyl)-5,6-dihydro-4H-pyrrolo[3,4-d]thiazol-2-yl)-5′-methoxy-6-methyl-[4,4′-bipyridine]-3-carboxamide], the IC50 in test [1] was 1 to 15 nM; in test [2], 2 to 5 µM; in test [3] it was 0.001 to 0.1 µM.

As to `COc1cnc(Cl)cc1-c1cc(C)ncc1C(=O)Nc1nc2c(s1)CN(C(=O)C1CC3(CCC3)C1)C2` [Example 8, 2′-chloro-5′-methoxy-6-methyl-N-(5-(spiro[3.3]heptane-2-carbonyl)-5,6-dihydro-4H-pyrrolo[3,4-d]thiazol-2-yl)-[4,4′-bipyridine]-3-carboxamide], the IC50 in test [1] fell in the range of 1 to 15 nM; in test [2], 5 to 10 µM; in test [3], 0.001 to 0.1 µM.

As for `COc1cnc(Cl)cc1-c1cc(C)ncc1C(=O)Nc1nc2c(s1)CN(C(=O)c1ccc(C(F)F)cn1)C2` [Example 9, 2′-chloro-N-(5-(5-(difluoromethyl)picolinoyl)-5,6-dihydro-4H-pyrrolo[3,4-d]thiazol-2-yl)-5′-methoxy-6-methyl-[4,4′-bipyridine]-3-carboxamide], the IC50 was 1 to 15 nM in test [1], at least 10 µM in test [2] and 0.001 to 0.1 µM in test [3].

Consider `COc1cnc(Cl)cc1-c1cc(C)ncc1C(=O)Nc1nc2c(s1)CN(C(=O)[C@H]1C[C@@H](OC(F)F)C1)C2` [Example 10, 2′-chloro-N-(5-((1s,3s)-3-(difluoromethoxy)cyclobutane-1-carbonyl)-5,6-dihydro-4H-pyrrolo[3,4-d]thiazol-2-yl)-5′-methoxy-6-methyl-[4,4′-bipyridine]-3-carboxamide], for which the IC50 in test [1] is 1 to 15 nM; in test [2] it was at least 10 µM; in test [3], 0.001 to 0.1 µM.

Consider `COc1cnc(Cl)cc1-c1cc(C)ncc1C(=O)Nc1nc2c(s1)CN(C(=O)c1ccc(Cl)cn1)C2` [Example 11, 2′-chloro-N-(5-(5-chloropicolinoyl)-5,6-dihydro-4H-pyrrolo[3,4-d]thiazol-2-yl)-5′-methoxy-6-methyl-[4,4′-bipyridine]-3-carboxamide], for which the IC50 in test [1] was in the range of 1 to 15 nM; in test [2], 2 to 5 µM; in test [3] it was 0.001 to 0.1 µM.

Regarding `COc1cnc(Cl)cc1-c1cc(C)ncc1C(=O)Nc1nc2c(s1)CN(C(=O)c1ccc(C(F)F)nc1)C2` [Example 12, 2′-chloro-N-(5-(6-(difluoromethyl)nicotinoyl)-5,6-dihydro-4H-pyrrolo[3,4-d]thiazol-2-yl)-5′-methoxy-6-methyl-[4,4′-bipyridine]-3-carboxamide], the IC50 in test [1] is 1 to 15 nM; in test [2], at least 10 µM; in test [3] it was 0.001 to 0.1 µM.

Consider `COc1cnc(Cl)cc1-c1cc(C)ncc1C(=O)Nc1nc2c(s1)CN(C(=O)c1ccc(Cl)nc1)C2` [Example 13, 2′-chloro-N-(5-(6-chloronicotinoyl)-5,6-dihydro-4H-pyrrolo[3,4-d]thiazol-2-yl)-5′-methoxy-6-methyl-[4,4′-bipyridine]-3-carboxamide], for which the IC50 is 1 to 15 nM in test [1], at least 10 µM in test [2] and 0.001 to 0.1 µM in test [3].

For the compound `COc1cnc(Cl)cc1-c1cc(C)ncc1C(=O)Nc1nc2c(s1)CN(C(=O)c1ccc(C(F)(F)F)nn1)C2` [Example 14, 2′-chloro-5′-methoxy-6-methyl-N-(5-(6-(trifluoromethyl)pyridazine-3-carbonyl)-5,6-dihydro-4H-pyrrolo[3,4-d]thiazol-2-yl)-[4,4′-bipyridine]-3-carboxamide], the IC50 was 1 to 15 nM in test [1], at least 10 µM in test [2] and 0.001 to 0.1 µM in test [3].

For the compound `COc1cnc(Cl)cc1-c1cc(C)ncc1C(=O)Nc1nc2c(s1)CN(C(=O)c1ccc(C(F)(F)F)nc1OC)C2` [Example 15, 2′-chloro-5′-methoxy-N-(5-(2-methoxy-6-(trifluoromethyl)nicotinoyl)-5,6-dihydro-4H-pyrrolo[3,4-d]thiazol-2-yl)-6-methyl-[4,4′-bipyridine]-3-carboxamide], the half-maximal inhibitory concentration (IC50) in test [1] was in the range of 1 to 15 nM; in test [2], 5 to 10 µM; in test [3], 0.001 to 0.1 µM.

As to `COc1cnc(Cl)cc1-c1cc(C)ncc1C(=O)Nc1nc2c(s1)CN(C(=O)c1ncc(C(F)(F)F)cc1Cl)C2` [Example 16, 2′-chloro-N-(5-(3-chloro-5-(trifluoromethyl)picolinoyl)-5,6-dihydro-4H-pyrrolo[3,4-d]thiazol-2-yl)-5′-methoxy-6-methyl-[4,4′-bipyridine]-3-carboxamide], the figures for the half-maximal inhibitory concentration (IC50) in test [1], in test [2] and in test [3] were 1 to 15 nM, at least 10 µM and 0.001 to 0.1 µM, respectively.

As for `COc1cnc(Cl)cc1-c1cc(C)ncc1C(=O)Nc1nc2c(s1)CN(C(=O)c1cc(C)n(C)n1)C2` [Example 17, 2′-chloro-N-(5-(1,5-dimethyl-1H-pyrazole-3-carbonyl)-5,6-dihydro-4H-pyrrolo[3,4-d]thiazol-2-yl)-5′-methoxy-6-methyl-[4,4′-bipyridine]-3-carboxamide], the results for the IC50 in test [1], in test [2] and in test [3] were 1 to 15 nM, 0.001 to 0.5 µM and 0.001 to 0.1 µM, respectively.

Regarding `COc1cnc(Cl)cc1-c1cc(C)ncc1C(=O)Nc1nc2c(s1)CN(C(=O)c1cccc(C(F)F)n1)C2` [Example 18, 2′-chloro-N-(5-(6-(difluoromethyl)picolinoyl)-5,6-dihydro-4H-pyrrolo[3,4-d]thiazol-2-yl)-5′-methoxy-6-methyl-[4,4′-bipyridine]-3-carboxamide], the IC50 in test [1] is 1 to 15 nM; in test [2], 5 to 10 µM; in test [3], 0.001 to 0.1 µM.

For the compound `COc1cnc(Cl)cc1-c1cc(C)ncc1C(=O)Nc1nc2c(s1)CN(C(=O)c1cnccc1Cl)C2` [Example 19, 2′-chloro-N-(5-(4-chloronicotinoyl)-5,6-dihydro-4H-pyrrolo[3,4-d]thiazol-2-yl)-5′-methoxy-6-methyl-[4,4′-bipyridine]-3-carboxamide], the IC50 was 1 to 15 nM in test [1], at least 10 µM in test [2] and 0.001 to 0.1 µM in test [3].

`COc1cnc(Cl)cc1-c1cc(C)ncc1C(=O)Nc1nc2c(s1)CN(C(=O)c1cccc(C(F)(F)F)n1)C2` [Example 21, 2′-chloro-5′-methoxy-6-methyl-N-(5-(6-(trifluoromethyl)picolinoyl)-5,6-dihydro-4H-pyrrolo[3,4-d]thiazol-2-yl)-[4,4′-bipyridine]-3-carboxamide]: the results for the IC50 in test [1], in test [2] and in test [3] were 1 to 15 nM, at least 10 µM and 0.001 to 0.1 µM, respectively.

As to `COc1cnc(Cl)cc1-c1cc(C)ncc1C(=O)Nc1nc2c(s1)CN(C(=O)[C@H]1C[C@H](OC(F)(F)F)C1)C2` [Example 26, 2′-chloro-5′-methoxy-6-methyl-N-(5-((1r,3r)-3-(trifluoromethoxy)cyclobutane-1-carbonyl)-5,6-dihydro-4H-pyrrolo[3,4-d]thiazol-2-yl)-[4,4′-bipyridine]-3-carboxamide], the IC50 is 1 to 15 nM in test [1], 5 to 10 µM in test [2] and 0.001 to 0.1 µM in test [3].

In the case of `COc1cnc(Cl)cc1-c1cc(C)ncc1C(=O)Nc1nc2c(s1)CN(C(=O)c1cncc(Cl)c1)C2` [Example 28, 2′-chloro-N-(5-(5-chloronicotinoyl)-5,6-dihydro-4H-pyrrolo[3,4-d]thiazol-2-yl)-5′-methoxy-6-methyl-[4,4′-bipyridine]-3-carboxamide], the IC50 was 1 to 15 nM in test [1], 0.5 to 2 µM in test [2] and 0.001 to 0.1 µM in test [3].

Regarding `COc1cnc(Cl)cc1-c1cc(C)ncc1C(=O)Nc1nc2c(s1)CN(C(=O)c1ncc(Cl)cn1)C2` [Example 35, 2′-chloro-N-(5-(5-chloropyrimidine-2-carbonyl)-5,6-dihydro-4H-pyrrolo[3,4-d]thiazol-2-yl)-5′-methoxy-6-methyl-[4,4′-bipyridine]-3-carboxamide], the IC50 in test [1] lay within 1 to 15 nM; in test [2], 2 to 5 µM; in test [3] it was 0.001 to 0.1 µM.

For the compound `COc1cnc(Cl)cc1-c1cc(C)ncc1C(=O)Nc1nc2c(s1)CN(C(=O)c1cnc(C(F)F)cc1Cl)C2` [Example 36, 2′-chloro-N-(5-(4-chloro-6-(difluoromethyl)nicotinoyl)-5,6-dihydro-4H-pyrrolo[3,4-d]thiazol-2-yl)-S′-methoxy-6-methyl-[4,4′-bipyridine]-3-carboxamide], the IC50 is 1 to 15 nM in test [1], at least 10 µM in test [2] and 0.001 to 0.1 µM in test [3].

Consider `COc1cnc(Cl)cc1-c1cc(C)ncc1C(=O)Nc1nc2c(s1)CN(C(=O)c1ncc(C(F)(F)F)cn1)C2` [Example 37, 2′-chloro-5′-methoxy-6-methyl-N-(5-(5-(trifluoromethyl)pyrimidine-2-carbonyl)-5,6-dihydro-4H-pyrrolo[3,4-d]thiazol-2-yl)-[4,4′-bipyridine]-3-carboxamide], for which the values for the IC50 in test [1], in test [2] and in test [3] were 1 to 15 nM, at least 10 µM and 0.001 to 0.1 µM, respectively.

For the compound `COc1cnc(Cl)cc1-c1cc(C)ncc1C(=O)Nc1nc2c(s1)CN(C(=O)c1ncc(C(F)(F)F)cc1OC)C2` [Example 38, 2′-chloro-5′-methoxy-N-(5-(3-methoxy-5-(trifluoromethyl)picolinoyl)-5,6-dihydro-4H-pyrrolo[3,4-d]thiazol-2-yl)-6-methyl-[4,4′-bipyridine]-3-carboxamide], the IC50 in test [1] was 1 to 15 nM; in test [2], at least 10 µM; in test [3] it was 0.001 to 0.1 µM.
